Results reported in patent US9505754B2, “Compound useful for the treatment of degenerative and inflammatory diseases” (GALAPAGOS NV, priority 2009, dated 2016).

Assays:
[1] = Microsomal stability, human; format: in vitro ADME; conditions: human liver microsomes, 3 μM compound, 1 hour, 37° C.
Protocol: (§1) A 10 mM stock solution of compound in DMSO was diluted 1000 fold in a 182 mM phosphate buffer pH7.4 in a 96 deep well plate (Greiner, Cat no. 780285) and pre-incubated at 37° C.
(§2) 40 μL of deionised water was added to a well of a polypropylene Matrix 2D barcode labelled storage tube (Thermo Scientific) and pre-incubated at 37° C.
(§3) A Glucose-6-phophate-dehydrogenase (G6PDH) working stock solution was prepared in 182 mM phosphate buffer pH7.4 and placed on ice before use. A co-factor containing MgCl2, glucose-6-phosphate and NADP+ was prepared in deionised water and placed on ice before use. […]
(§4) These plates were sealed with sealing mats (MA96RD-04S) of www.kinesis.co.uk and samples were measured at room temperature on LCMS (ZQ 1525 from Waters) under optimized conditions using Quanoptimize to determine the appropriate mass of the parent molecule.
(§5) The samples were analyzed on LCMS with a flow rate of 1 mL/min. […]
(§6) Peak area from the parent compound at time 0 was considered to be 100% remaining. The percentage remaining after 1 hour incubation was calculated from time 0 and was calculated as the percentage remaining. […]
(§7) The data on microsomal stability are expressed as a percentage of the total amount of compound remaining after 60 minutes.

[2] = Microsomal stability, rat; format: in vitro ADME; conditions: rat liver microsomes, 3 μM compound, 1 hour, 37° C.
Protocol: as §1, §2, §3, §4, §5, §6, §7

[3] = test system: collagen induced arthritis; test: Rat CIA (collagen induced arthritis) model; format: in vivo
Protocol: Completed Freund's adjuvant (CFA) and incomplete Freund's adjuvant (IFA) were purchased from Difco. Bovine collagen type […] (CII), lipopolysaccharide (LPS), and Enbrel were obtained from Chondrex (Isle d'Abeau, France); Sigma (P4252, L'Isle d'Abeau, France), Whyett (25 mg injectable syringe, France) Acros Organics (Palo Alto, Calif.), respectively. All other reagents used were of reagent grade and all solvents were of analytical grade.
Dark Agouti rats (male, 7-8 weeks old) are obtained from Harlan Laboratories (Maison-Alfort, France). DBA/1J mice (male, 7 weeks old) were obtained from Centre d'Elevage et de Reproduction JANVIER (CERJ) (Laval, France). Rats and mice were kept on a 12 hours light/dark cycle (0700-1900). The temperature was maintained at 22° C., and food and water were provided ad libitum.
One day before the experiment, CII solution (2 mg/mL) was prepared with 0.05 M acetic acid and stored at 4° C. Just before the immunization, equal volumes of adjuvant (IFA) and CII were mixed by a homogenizer in a pre-cooled glass bottle in an ice water bath. Extra adjuvant and prolonged homogenization might be required if an emulsion is not formed.
Rat: 0.2 mL of the emulsion is injected intradermally at the base of the tail of each rat on day 1, a second booster intradermal injection (CII solution at 2 mg/mL in CFA 0.1 mL saline) is performed on day 9. This immunization method is modified from published methods (Sims N A et al., (2004) Targeting osteoclasts with zoledronic acid prevents bone destruction in collagen-induced arthritis, Arthritis Rheum. 50 2338-2346; Jou et al., 2005).
The therapeutic effects of the test compounds were tested in the rat or mouse CIA model. Animals were randomly divided into equal groups and each group contained 10 animals. All rats are immunized on day 1 and boosted on day 9. All mice were immunized on day 1 and boosted on day 21. Therapeutic dosing lasted from day 16 to day 30. The negative control group was treated with vehicle (MC 0.5%) and the positive control group with Enbrel (10 mg/kg, 3× week., s.c.). A compound of interest was typically tested at 3 doses, e.g. 3, 10, 30 mg/kg, p.o.
Arthritis was scored according the method of Khachigian 2006, Lin et al 2007 and Nishida et al. 2004). […]
The area under the curve (AUC) from day 1 to day 14 was calculated for each individual rat. The AUC of each animal was divided by the average AUC obtained for the vehicle in the study from which the data on that animal was obtained and multiplied by 100 (i.e. the AUC was expressed as a percentage of the average vehicle AUC per study).
The clinical score difference for each animal was divided by the average clinical score difference obtained for the vehicle in the study from which the data on that animal was obtained and multiplied by 100 (i.e. the difference was expressed as a percentage of the average clinical score difference for the vehicle per study).
Post-mortem, a Larsen’ score was derived for both hind paws of all rats by at least 2 scientists. The average of these scores was calculated to obtain one Larsen’ score per rat. […]

In the case of `CC1(C)CN(C(=O)c2ccc(-c3cccc4nc(NC(=O)C5CC5)nn34)cc2)C1` [Compound 1, Cyclopropanecarboxylic acid {5-[4-(3,3-dimethyl-azetidine-1-carbonyl)-phenyl]-[1,2,4]triazolo[1,5-a]pyridin-2-yl}-amide], the “Microsomal stability, Human (percentage of compound remaining after 60 minutes)” value [1] is reported as 76-100%, the “Microsomal stability, Rat (percentage of compound remaining after 60 minutes)” value [2] is reported as 76-100% and the endpoint clinical score ([3]; rat CIA, from 1 mg/kg) is reported as “significant improvements”. For the same molecule, the paw swelling ([3]; rat CIA, from 1 mg/kg) was “significant improvements”, the “AUC of the clinical score” value ([3]; rat CIA, from 10 mg/kg) was “significant improvements” and the “Larsen' score” value ([3]; rat CIA, from 30 mg/kg) was “significant improvements”. For the same molecule, the “efficacy in rat CIA study readouts” value ([3]; rat, 30, 10, 3 and 1 mg/kg) was “efficacious in all readouts”.
